# Where two headings read alike, the source gives them in different places.
# Columns and labels:
# W2 (CQ resistant) = test system: W2 (CQ resistant); parameters: method as in ref S2; settings: [3H]-hypoxanthine assay; ref S2; read-out: Antimalarial activities IC50 W2; cited from earlier work
# [1] = test system: TM93-C1088 (atovaquone and CQ resistant); parameters: method as in ref S2; settings: [3H]-hypoxanthine assay; ref S2; read-out: Antimalarial activities IC50 TM93-C1088; cited from earlier work
# 7G8 (CQ resistant) = test system: 7G8 (CQ resistant); parameters: method as in ref S2; settings: [3H]-hypoxanthine assay; ref S2; read-out: Antimalarial activities IC50 7G8; cited from earlier work
# [2] = Cytotoxicity (LDH assay) against HepG2 cells; type: cell-based; settings: human
# Protocol: Cytotoxicity against mammalian hepatocellular carcinoma cells (HepG2 cells) was determined using the lactate dehydrogenase assay (LDH, Biovision Inc., Milpitas, CA, USA). […] Compound working solutions were prepared from 10 mM stock solutions (100% DMSO) in complete DMEM to a final DMSO (Sigma-Aldrich) conc. of <0.1% (vol/vol). […] Data analysis was performed using GraphPad Prism (version 6) software.
# [3] = test system: asexual blood stages of Pf NF54 (drug sensitive); parameters: method as in PMID 29866868, PMID 31998692; settings: asexual blood stage Pf NF54, CQ sensitive; SYBR Green I; ± SEM; cited from earlier work
# TM-C2B = test system: TM-C2B; parameters: method as in ref S2; settings: [3H]-hypoxanthine assay; ref S2; read-out: Antimalarial activities IC50 TM-C2B; cited from earlier work
# [4] = test system: asexual blood stages of Pf K1 (drug resistant); parameters: method as in PMID 29866868, PMID 31998692; settings: cited from earlier work; for IC50: asexual blood stage Pf K1, multidrug resistant, SYBR Green I, ± SEM
# [5] = test system: TM91-C235 (CQ and MFQ resistant); parameters: method as in ref S2; settings: [3H]-hypoxanthine assay; ref S2; read-out: Antimalarial activities IC50 TM91-C235; cited from earlier work
# D6 (CQ sensitive) = test system: D6 (CQ sensitive); parameters: method as in ref S2; settings: [3H]-hypoxanthine assay; ref S2; read-out: Antimalarial activities IC50 D6; cited from earlier work
# P. berghei sporozoites = settings: cited from earlier work; for Maximum inhibition % P. berghei sporozoites: ref S3; for IC50: luciferase-expressing P. berghei ANKA GFP-Luc-SMcon sporozoites in HepG2 cells, 48 h, ± SD, ref S3 (7)
# HepG2 = settings: cited from earlier work; for SI = EC50 HepG2/IC50 P. berghei sporozoites: ref S3
# [6] = test system: asexual blood stages of Pf W2 (drug resistant); parameters: method as in PMID 29866868, PMID 31998692; settings: cited from earlier work; for IC50: asexual blood stage Pf W2, multidrug resistant, SYBR Green I, ± SEM
# [7] = test system: fetal rat brain stem cells; settings: ref S4 (24), cited from earlier work
# P. falciparum W2 = test system: P. falciparum W2; parameters: method as in ref S3; settings: [3H]-hypoxanthine assay; ref S3; cited from earlier work
# [8] = test system: early-stage (EG) Pf NF54 gametocytes; parameters: method as in PMID 29866868; settings: early-stage gametocytes >95% stages II-III; 48 h incubation; ± SEM; cited from earlier work
# [9] = test system: late-stage (LG) Pf NF54 gametocytes; parameters: method as in PMID 29866868; settings: late-stage gametocytes >90% stages IV-V; 48 h incubation; ± SEM; cited from earlier work
# [10] = test system: P. falciparum asexual blood stage artemisinin-resistant clone ARC08-22 (4G) carrying the PfKI3 C580Y mutation; parameters: method as in ref S3; settings: ref S3, cited from earlier work
# [11] = test system: P. falciparum asexual blood stage artemisinin-resistant clone PL08-009 (5C) carrying the PfKI3 C580Y mutation; parameters: method as in ref S3; settings: ref S3, cited from earlier work
# [12] = test system: Chinese hamster ovary (CHO) cells; parameters: method as in PMID 29866868, PMID 31998692; settings: other cell lines including CHO cells; read-out: EC50 cytotoxicity; cited from earlier work
# [13] = test system: asexual blood stages of Pf NF54 (drug sensitive); assay: SYBR Green I proliferation assay, asexual blood stages, Pf NF54; type: cell-based, Plasmodium falciparum
# Protocol: (§1) Dose response curves are in Figures S1a–c and S2a–c in the Supplementary Material 1. Table 1 also includes the historical values for artemiside and artemisone obtained using the same assay.
# (§2) All other assay conditions are as previously described. Compound working solutions were prepared from a 10 mM stock solution in 100% (vol/vol) dimethyl sulfoxide (DMSO, Sigma-Aldrich) in supplemented RPMI 1640 medium containing AlbuMAX II with a final DMSO concentration of 0.1% (vol/vol), previously determined to be nontoxic to blood stage asexual parasites and gametocytes. The dose-responses of the amino-artemisinins were assayed using a 2-fold serial drug dilution on in vitro 95% ring-stage parasites at 37 °C under 90% N2, 5% CO2, and 5% O2 atmospheric conditions, detecting SYBR green I fluorescence as the proliferative marker following a 96 h drug treatment (1% parasitemia and 1% hematocrit) using a GloMaxR-Multi+ Detection System (Promega). No drug washout steps were performed during drug incubation periods prior to the assays. Activity against the Pf drug-sensitive NF54 strain and the drug-resistant K1 (resistant to CQ, quinine, pyrimethamine, and cycloguanil) and W2 (resistant to CQ, quinine, pyrimethamine, and cycloguanil) strains was evaluated. Data analysis was performed using GraphPad Prism (version 6), intra-assay variability was monitored with Z-factors, and acceptable interassay reproducibility was determined from the percent coefficient of variation (CV).
# [14] = test system: asexual blood stages of Pf W2 (drug resistant); assay: SYBR Green I proliferation assay, asexual blood stages, Pf W2; type: cell-based, Plasmodium falciparum
# Protocol: as §1, §2
# [15] = test system: early-stage (EG) Pf NF54 gametocytes; assay: Luciferase assay, early-stage gametocytes; type: cell-based, Plasmodium falciparum; settings: Plasmodium falciparum, NF54, 48 h, early-stage gametocytes >95% stages II-III; 48 h incubation; ± SEM
# Protocol: (§3) For screening artemisox and M1 against early- (EG) and late-stage (LG) gametocytes, the luciferase assay with transgenic NF54-pfs16-GFP-Luc and NF54-Mal8p1.16-GFP-Luc parasite lines was used. With this assay, stage-specificity of gametocytocidal action was established (Table 2). Dose-response curves are in Figures S1d,e and S2d in the Supplementary Material 1. […] As was observed previously for artemisone and artemiside, dose responses for artemisox and M1 could not be obtained at 48 h against late-stage gametocytes.
# (§4) The same reference compounds with the exception of CQ were used for the early- and late-stage gametocyte assays. Gametocytocidal activity was determined using the transgenic NF54-pfs16-GFP-Luc and NF54-Mal8p1.16-GFP-Luc reporter lines. Compounds were initially screened for activity at a fixed drug concentration of 1 µM, with dose responses subsequently determined using 2-fold serial drug dilutions for 48 h against early-stage gametocytes (day 5 post-induction population, ≥95% stages II–III) and 10-fold serial drug dilutions for 48 h or 72 h against late-stage gametocytes (day 10 post-induction population, ≥90% late-stage [stages IV–V]) (2 to 3% gametocytemia, 2% hematocrit) at 37 °C under 90% N2, 5% CO2, and 5% O2 [6]. No drug washout steps were performed during the drug incubation periods prior to the assays. In all cases, an interference assay was run in parallel to eliminate the possibility of false positives arising through compound interference with the luciferase readout.
# [16] = test system: asexual blood stages of Pf K1 (drug resistant); assay: SYBR Green I proliferation assay, asexual blood stages, Pf K1; type: cell-based, Plasmodium falciparum
# Protocol: as §1, §2
# [17] = test system: late-stage (LG) Pf NF54 gametocytes; assay: Luciferase assay, late-stage gametocytes; type: cell-based, Plasmodium falciparum; settings: fixed dose of 1 µM, 48 h incubation
# Protocol: as §3, §4
# [18] = parameters: method as in PMID 34097488; settings: cited from earlier work
# [19] = parameters: method as in PMID 34097488; settings: cited from earlier work; remark: listed apart in the source
# [20] = test system: type II tachyzoites (PRU-Luc-GFP); settings: sc 10 mg/kg/d for 8 days; cited from earlier work
# [21] = effect on the cytoskeleton on day 7
structure (smiles),measurement,setting,value
CCN(CC)CCCC(C)Nc1ccnc2cc(Cl)ccc12 (stereo not shown) [Chloroquine],IC50,W2 (CQ resistant),195 ± 70 nM
same,IC50,[1],360 ± 38 nM
same,IC50,7G8 (CQ resistant),84 ± 18 nM
same,IC50 at 24 h,[2],58400 nM
same,IC50,[3],10 ± 3 nM
same,IC50,TM-C2B,95 ± 23 nM
same,IC50,[4],154 ± 14 nM
same,IC50,[5],70 ± 12 nM
same,IC50,D6 (CQ sensitive),16 ± 2 nM
"COc1ccc(C[C@H](N)C(=O)N[C@H]2[C@@H](O)[C@H](n3cnc4c(N(C)C)ncnc43)O[C@@H]2CO)cc1 [Puromycin, reference compound]",Maximum inhibition % P. berghei sporozoites,P. berghei sporozoites; at 5 µM,110±4.24%
same,IC50,P. berghei sporozoites,22.7 ± 4.53 nM
same,EC50,HepG2,117 nM
same,SI = EC50 HepG2/IC50 P. berghei sporozoites,HepG2,5.15
"C[C@H]1[C@@H](O)O[C@@H]2O[C@@]3(C)CC[C@H]4[C@H](C)CC[C@@H]1[C@@]24OO3 [DHA 2, Dihydroartemisinin]",IC50,[6],1.74 ± 0.22 nM
same,RI = IC50 W2/IC50 NF54,[6],0.7
same,IC50,W2 (CQ resistant),2.2 ± 0.8 nM
same,IC50,[1],1.4 ± 0.4 nM
same,ATP IC50,[7]; ATP levels 1 day after initial administration,0.08 µg/mL
same,Neurofilaments IC50,[7]; [21],0.01 µg/mL
same,Neurofilaments NOEC,[7]; [21],< 0.001 µg/mL
same,Viability IC50,"[7]; neuron-specific enolase activity, 7 days exposure",5.0 µg/mL
same,IC50,7G8 (CQ resistant),1.3 ± 0.2 nM
same,IC50,P. falciparum W2,4.58 nM
same,IC90,P. falciparum W2,10.3 nM
same,IC50,[3],2.51 ± 0.19 nM
same,IC50,[8],43 ± 3.9 nM
same,IC50,TM-C2B,2 ± 0.7 nM
same,IC50,[9],33.7 ± 1.98 nM
same,IC50,[4],1.51 ± 0.33 nM
same,RI (resistance index) = IC50 K1/IC50 NF54,[4],0.6
same,IC50,[5],2.3 ± 0.7 nM
same,IC50,"[10]; 48 h life cycle, PfKI3 C580Y",6.68 nM
same,IC90,"[10]; 48 h life cycle, PfKI3 C580Y",15.4 nM
same,RI = IC50 for ARC08-22(4G)/IC50 for W2,[10],1.5
same,IC50,D6 (CQ sensitive),1.7 ± 0.4 nM
same,IC50,"[11]; 36 h life cycle, PfKI3 C580Y",6.41 nM
same,IC90,"[11]; 36 h life cycle, PfKI3 C580Y",10.7 nM
same,RI = IC50 for PL08-09 (5C)/IC50 for W2,[11],1.4
same,EC50,[12],25200 nM
"C[C@H]1[C@H](N2C=CS(=O)(=O)CC2)O[C@@H]2O[C@@]3(C)CC[C@H]4[C@H](C)CC[C@@H]1[C@@]24OO3 [M1 8, M1]",IC50,"[13]; Plasmodium falciparum, NF54, 96 h, asexual blood stage Pf NF54, CQ sensitive, SYBR Green I, 96 h, ± SEM, read-out: IC50 NF54",2.63 ± 0.24 nM
same,IC50,"[13]; Plasmodium falciparum, NF54, summary over NF54, K1 and W2 strains, read-out: IC50 against asexual Pf blood stage parasites",~2 nM
same,IC50,"[13]; summary over NF54, K1 and W2 strains, read-out: IC50 against asexual Pf blood stage parasites",1.5 to 2.6 nM
same,RI = IC50 W2/IC50 NF54,[14],0.86
same,IC50,"[14]; Plasmodium falciparum, asexual blood stage Pf W2, multidrug resistant, SYBR Green I, 96 h, ± SEM",2.26 ± 0.08 nM
same,IC50,W2 (CQ resistant),6.6 ± 0.4 nM
same,IC50,[1],2.5 ± 0.4 nM
same,IC50,7G8 (CQ resistant),2.6 ± 0.8 nM
same,IC50,[15],13.4 ± 2.7 nM
same,IC50 at 24 h,[2]; HepG2 cells (hepatocellular carcinoma),> 50000 nM
same,RI (resistance index) = IC50 K1/IC50 NF54,[16],0.57
same,IC50,"[16]; Plasmodium falciparum, asexual blood stage Pf K1, multidrug resistant, SYBR Green I, 96 h, ± SEM",1.5 ± 0.23 nM
same,IC50,TM-C2B,8.6 ± 8.2 nM
same,inhibition of LG viability,[17],> 90%
same,fold greater human microsomal half-life than artemisone,[18],> 15 fold
same,fold greater human microsomal half-life than artemisone,[18]; listed as M1,≥ 15 fold
same,IC50,[5],5 ± 0.6 nM
same,IC50,D6 (CQ sensitive),4.7 ± 0.2 nM
"CO[C@H]1O[C@@H]2O[C@@]3(C)CC[C@H]4[C@H](C)CC[C@@H]([C@H]1C)[C@@]24OO3 [Artemether 3, Artemether]",IC50,[6],7 ± 1 nM
same,RI = IC50 W2/IC50 NF54,[6],3.8
same,IC50,[3],1.86 ± 0.17 nM
same,Maximum inhibition % P. berghei sporozoites,P. berghei sporozoites; at 10 µM,49.4%
same,IC50,P. berghei sporozoites,> 104 nM
same,IC50,P. berghei sporozoites; listed as artemether 3,> 10000 nM
same,F% (oral bioavailability),[19],2%
same,Cmax,"[19]; oral administration, same dose, same murine model",600 nM
same,IC50,[8],37.7 ± 2 nM
same,IC50,[9],136 ± 85.9 nM
same,IC50,[4],9 ± 2 nM
same,RI (resistance index) = IC50 K1/IC50 NF54,[4],4.8
OC(c1cc(C(F)(F)F)nc2c(C(F)(F)F)cccc12)C1CCCCN1 (stereo not shown) [Mefloquine],IC50,[1],16 ± 5 nM
same,IC50,7G8 (CQ resistant),5.4 ± 1.7 nM
same,IC50,TM-C2B,130 ± 51 nM
same,IC50,[5],107 ± 41 nM
"C[C@@H]1CC[C@H]2[C@@H](C)C(=O)O[C@@H]3O[C@@]4(C)CC[C@@H]1[C@]32OO4 [Artemisinin 1, Artemisinin, reference compound]","mice surviving the infection, acute phase",[20],all mice treated with artemisinin succumbed to infection
O=C1C(O)=C([C@H]2CC[C@H](c3ccc(Cl)cc3)CC2)C(=O)c2ccccc21 [Atovaquone],IC50,[1],18800 nM
same,IC50,7G8 (CQ resistant),3.1 ± 0.9 nM
same,Maximum inhibition % P. berghei sporozoites,P. berghei sporozoites; at 0.5 µM,94.85±2.76%
same,IC50,P. berghei sporozoites,2.52 ± 0.997 nM
same,EC50,HepG2,> 250 nM
same,SI = EC50 HepG2/IC50 P. berghei sporozoites,HepG2,> 100
same,IC50,TM-C2B,31800 nM
same,IC50,[5],2.2 ± 0.7 nM
CN(C)c1ccc2nc3ccc(=[N+](C)C)cc-3sc2c1 [Methylene Blue],IC50,[3],5 ± 0.8 nM
same,IC50,[8],95 ± 11.3 nM
same,IC50,[9],143 ± 16.7 nM
